Source: patent US5616615A, “Enaminone esters” (priority 1995, dated 1997)
Where two headings read alike, the source gives them in different places.

What was measured:
in vivo [1] = conditions: mouse, in vivo
Description: The first phase of the ADD Program involved performing tests on male Carworth Farms #1 mice. […] Three tests were performed:
In the second phase of the ADD program protocol, estimates of anticonvulsant activity and neurotoxicity are quantified. The median effective dose (ED50) in the MES, sc Met, and rotorod test is determined. In the case of a compound with apparent activity in only one anticonvulsant test, testing is carried out in the other up to, and in some cases beyond, doses which produce neurological deficit. Compounds which fail to produce minimal neurological deficit are tested whenever possible to doses ten times their lowest anticonvulsant ED50. […] The rotorod ED50 is determined at the time of the peak neurologic deficit.

[2] = tested on: Maximal electroshock seizures; experiment: Phase VI oral MES test, rats; type: in vivo; conditions: Rattus norvegicus, oral, 50 mg/kg, read-out: MES, animals protected/tested (converted)
Description: (§1) Maximal electroshock seizures are elicited with a 60-cycle alternating current of 50 mA intensity (5-7 times that necessary to elicit minimal electroshock seizures) delivered via corneal electrodes for 0.2 seconds. A drop of 0.9% saline is instilled in the eye prior to application of the electrodes in order to […].
(§2) This oral screen is designated as phase VI.

[3] = tested on: Maximal electroshock seizures; experiment: MES maximal electroshock seizure test, mice ip; type: in vivo; conditions: for responders at 100 mg/kg / responders at 10 mg/kg: read-out: MES, animals protected/tested (converted)
Description: Three tests were performed:
1. MES--Electroshock Seizure Test
as §1

in vivo [4] = conditions: rat, po, 50 mg/kg
Description: as §2

[5] = tested on: Subcutaneous Pentylenetetrazol seizure; experiment: sc Met subcutaneous pentylenetetrazol (Metrazol) seizure test, mice; type: in vivo; conditions: Mus musculus, sc, read-out: scMet, animals protected/tested (converted)
Description: 2. sc Met--Subcutaneous Pentylenetetrazol (Metrazol^R) Seizure Test
The animal is observed for 30 minutes. Failure to observe even a threshold seizure (a single episode of clonic spasms of at least 5 seconds duration) is defined as protection and the results are expressed as the number of animals protected/the number of animals tested.

seizures = experiment: Anticonvulsant evaluation (ASP phase I / overall); type: in vivo, mice; conditions: Mus musculus, ip; Phase I; read-out: ASP Classification
Summary of the method: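 Male Carworth Farms #1 mice; maximal electroshock seizures elicited by 60-cycle AC, 50 mA, 0.2 s via corneal electrodes after a drop of 0.9% saline in the eye. Animals observed for 30 minutes.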

[6] = Mus musculus, ip, 0.25 h, Phase II, 0.25 h
[7] = Mus musculus, ip, 0.5 h, 30 min, read-out: MES, animals protected/tested
[8] = Mus musculus, ip, 1 h, Phase II, 1.00 h
[9] = Mus musculus, ip, 4 h, 4 h, read-out: MES, animals protected/tested
[10] = Mus musculus, ip, 0.5 h, 30 min

SMILES | Tox (rotorod), animals toxic/tested (in vivo [1]; 100 mg/kg) | responders at 50 mg/kg ([2]; 0.5 h, 0.50 h) | responders at 50 mg/kg ([2]; 0.25 h) | responders at 50 mg/kg ([2]; 1.00 h) | responders at 50 mg/kg ([2]; 2.00 h) | responders at 50 mg/kg ([2]; 4.00 h) | responders at 100 mg/kg [3, 6] | responders at 300 mg/kg [3, 7] | responders at 100 mg/kg [3, 8] | responders at 300 mg/kg [3, 9] | Tox, animals toxic/tested (in vivo [4]) | responders at 300 mg/kg ([5]; 0.5 h, 30 min) | responders at 300 mg/kg ([5]; 4 h, 4 h) | minimal effective dose (seizures) | responders at 100 mg/kg [3, 10] | responders at 100 mg/kg ([3]; Mus musculus, ip, 4 h, 4 h) | responders at 100 mg/kg ([5]; 0.5 h, 30 min) | responders at 100 mg/kg ([5]; 4 h, 4 h) | further results
CCOC(=O)C1C(=O)C=C(Nc2ccc(CC)cc2)CC1C (stereo not shown) [Compound 126] | 0/2 | 75% | 50% | 75% | 75% | 50% | 100% | 100% | 0% | 0% | 0/4 | 0% | 0% | > 100 mg/kg | – | – | – | – | –
CCOC(=O)C1C(=O)C=C(Nc2ccc([N+](=O)[O-])cc2)CC1C (stereo not shown) [Compound 127] | – | 50% | 25% | 100% | 50% | 25% | – | 100% | – | 0% | 0/4 | 100% | 0% | < 100 mg/kg | 100% | 0% | 0% | 0% | Tox (rotorod), animals toxic/tested (in vivo [1]; 3 mg/kg): 0/4; Tox (rotorod), animals toxic/tested (in vivo [1]; 10 mg/kg): 0/4; responders at 3 mg/kg ([3]; Mus musculus, ip, 0.5 h, Phase II, 3 mg/kg, 0.50 h, read-out: MES, animals protected/tested): 0%; responders at 10 mg/kg ([3]; Mus musculus, ip, 0.5 h, Phase II, 0.50 h): 0%; responders at 300 mg/kg ([5]; 0.5 h, 30 min, second trial): 50%
CCOC(=O)C1C(=O)C=C(Nc2ccc(C(F)(F)F)cc2)CC1C (stereo not shown) [Compound 131] | – | 100% | 100% | 100% | 100% | – | – | 100% | – | 100% | 0/4 | 0% | 0% | < 100 mg/kg | 100% | 0% | 0% | 0% | Tox, animals toxic/tested (in vivo [1]; ip, 100 mg/kg): 0/8; responders at 10 mg/kg ([3]; Mus musculus, ip, 0.25 h, mice ip, 0.25 h): 100%; responders at 10 mg/kg ([3]; Mus musculus, ip, 0.5 h, mice ip, 0.50 h): 75%; responders at 10 mg/kg ([3]; Mus musculus, ip, 1 h, mice ip, 1.00 h): 100%; responders at 10 mg/kg ([3]; Mus musculus, ip, 2 h, mice ip, 2.00 h): 50%; responders at 10 mg/kg ([3]; Mus musculus, ip, 4 h, mice ip, 4.00 h): 50%; anti-MES protecting ability ([3]; Phase I): showed anti-MES protecting ability
CC1(C)CC(=O)C=C(Nc2ccc(N)cc2)C1 [Compound 142] | 0/2 | 0% | 0% | 0% | 0% | 25% | 50% | 100% | 50% | 100% | 0/4 | 0% | 0% | < 100 mg/kg | 0% | 33.3% | 0% | 0% | –
